In patent US8461328B2, “Tricyclic heterocyclic compounds, compositions and methods of use thereof” (Genentech, Inc., priority 2010, dated 2013):
Structures can show the parent of a compound that is named as a salt.

Tests used:
Assay type in all cases: biochemical
JAK1 = biological target: T1, JAK1 (Homo sapiens, UniProt P23458); test: JAK1 inhibition (Table 4); conditions: read-out: JAK1 Ki
T1 construct: made in house; host or cells: SF9 insect cells (baculovirus)

TYK2 = biological target: T2, TYK2 (Homo sapiens, UniProt P29597); test: TYK2 inhibition (Table 4)
T2 construct: made in house; host or cells: SF9 insect cells (baculovirus)
T2 sequence (P29597 873-1187): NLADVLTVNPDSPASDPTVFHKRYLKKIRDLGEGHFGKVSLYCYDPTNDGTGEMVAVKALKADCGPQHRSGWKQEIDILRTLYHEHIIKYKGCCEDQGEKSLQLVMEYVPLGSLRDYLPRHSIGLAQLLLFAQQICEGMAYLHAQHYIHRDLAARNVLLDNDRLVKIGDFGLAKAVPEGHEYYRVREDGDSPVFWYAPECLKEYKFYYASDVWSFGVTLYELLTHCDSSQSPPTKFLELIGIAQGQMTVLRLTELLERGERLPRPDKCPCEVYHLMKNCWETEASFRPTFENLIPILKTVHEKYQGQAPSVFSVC

JAK3 = biological target: T3, JAK3 (Homo sapiens, UniProt P52333); test: JAK3 inhibition (Table 4); conditions: read-out: JAK3 Ki
T3 construct: made in house; host or cells: SF9 insect cells (baculovirus)
T3 sequence (P52333 783-1124): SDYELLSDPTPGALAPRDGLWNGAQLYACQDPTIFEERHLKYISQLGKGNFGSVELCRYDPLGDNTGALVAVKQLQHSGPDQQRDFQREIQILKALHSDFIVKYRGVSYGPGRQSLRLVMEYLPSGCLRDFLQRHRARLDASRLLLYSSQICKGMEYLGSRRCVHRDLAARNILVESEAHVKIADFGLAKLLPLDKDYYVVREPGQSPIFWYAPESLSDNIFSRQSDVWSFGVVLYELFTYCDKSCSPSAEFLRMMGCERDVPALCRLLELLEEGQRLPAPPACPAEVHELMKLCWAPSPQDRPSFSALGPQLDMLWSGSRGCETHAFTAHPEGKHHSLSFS

JAK2 = biological target: T4, JAK2 (Homo sapiens, UniProt O60674); test: JAK2 inhibition (Table 4); conditions: read-out: JAK2 Ki
T4 construct: made in house; host or cells: SF9 insect cells (baculovirus)
T4 sequence (O60674 812-1132): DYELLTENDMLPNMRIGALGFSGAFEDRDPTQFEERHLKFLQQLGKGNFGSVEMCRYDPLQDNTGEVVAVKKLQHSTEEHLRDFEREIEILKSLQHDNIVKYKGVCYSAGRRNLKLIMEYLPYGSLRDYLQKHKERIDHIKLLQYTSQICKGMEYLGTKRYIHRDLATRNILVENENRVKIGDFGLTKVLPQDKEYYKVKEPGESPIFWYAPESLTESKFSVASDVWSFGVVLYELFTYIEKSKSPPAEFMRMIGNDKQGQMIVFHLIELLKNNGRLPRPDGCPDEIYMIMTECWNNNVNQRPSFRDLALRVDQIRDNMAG

T1 sequence (P23458 852-1154): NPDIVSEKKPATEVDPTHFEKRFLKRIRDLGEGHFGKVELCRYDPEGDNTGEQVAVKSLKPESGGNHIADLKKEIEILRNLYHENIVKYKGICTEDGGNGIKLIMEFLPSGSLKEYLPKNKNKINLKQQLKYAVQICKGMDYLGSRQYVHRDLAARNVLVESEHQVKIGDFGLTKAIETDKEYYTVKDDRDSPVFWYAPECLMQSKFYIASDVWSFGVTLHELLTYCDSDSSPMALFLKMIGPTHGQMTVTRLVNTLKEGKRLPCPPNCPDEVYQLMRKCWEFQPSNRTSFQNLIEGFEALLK

Cc1noc(CN2CCC(n3c([C@@H](C)O)nc4cnc5[nH]ccc5c43)CC2)n1 [Example 703, (R)-1-{1-[1-(3-Methyl-[1,2,4]oxadiazol-5-ylmethyl)-piperidin-4-yl]-1,6-dihydro-1,2,3,5,6-tetraaza-as-indacen-2-yl}-ethanol]
Ki (JAK1): 1.97 nM
Ki (TYK2): 182 nM
Ki (JAK3): 5.01 nM
Ki (JAK2): 30.1 nM

N#CCCN1CCC(n2c(CCNC(=O)C3CCC3)nc3cnc4[nH]ccc4c32)CC1 [Example 375, Cyclobutanecarboxylic acid (2-{1-[1-(2-cyano-ethyl)-piperidin-4-yl]-1,6-dihydro-1,3,5,6-tetraaza-as-indacen-2-yl}-ethyl)-amide]
Ki (JAK1): 4.11 nM
Ki (TYK2): 158 nM
Ki (JAK3): 59.8 nM
Ki (JAK2): 43 nM

C[C@@H](O)c1nc2cnc3[nH]ccc3c2n1[C@@H]1CCCN(C(=O)CC(F)(F)F)C1 [Example 785, 3,3,3-Trifluoro-1-{(R)-3-[2-((R)-1-hydroxy-ethyl)-6H-1,3,5,6-tetraaza-as-indacen-1-yl]-piperidin-1-yl}-propan-1-one]
Ki (JAK1): 31.9 nM
Ki (TYK2): 278 nM
Ki (JAK3): 566 nM
Ki (JAK2): 373 nM

CC1(COC(=O)N[C@H]2CC[C@H](n3cnc4cnc5[nH]ccc5c43)CC2)CC1 [Example 348, [4-(6H-1,3,5,6-Tetraaza-as-indacen-1-yl)-cyclohexyl]-carbamic acid 1-methyl-cyclopropylmethyl ester]
Ki (JAK1): 5.6 nM
Ki (TYK2): 148 nM
Ki (JAK3): 78.5 nM
Ki (JAK2): 15 nM

CC(O)c1nc2cnc3[nH]ccc3c2n1CC1CCCO1 (stereo not drawn) [Example 699, 1-[1-(Tetrahydro-furan-2-ylmethyl)-1,6-dihydro-1,2,3,5,6-tetraaza-as-indacen-2-yl]-ethanol]
Ki (JAK1): 235 nM
Ki (TYK2): 1070 nM
Ki (JAK3): 280 nM
Ki (JAK2): 131 nM

N#CCC(=O)N1CCCC(n2c(CC3CC3)nc3cnc4[nH]ccc4c32)C1 (stereo not drawn) [Example 676, 3-[3-(2-Cyclopropylmethyl-6H-1,2,3,5,6-tetraaza-as-indacen-1-yl)-piperidin-1-yl]-3-oxo-propionitrile]
Ki (JAK1): 1.36 nM
Ki (TYK2): 22.1 nM
Ki (JAK3): 40.2 nM
Ki (JAK2): 7.87 nM

CC1CN(Cc2ccccc2)CCC1n1cnc2cnc3[nH]ccc3c21 (racemic) [Example 150, Racemic trans 1-(1-Benzyl-3-methyl-piperidin-4-yl)-1,6-dihydro-1,2,3,5,6-tetraaza-as-indacene dihydrochloride]
Ki (JAK1): 4.17 nM
Ki (TYK2): 292 nM
Ki (JAK3): 17.7 nM
Ki (JAK2): 11.9 nM

C[C@@H](O)c1nc2cnc3[nH]ccc3c2n1[C@H]1CC[C@H](S(C)(=O)=O)CC1 [Example 650, Trans (R)-1-[1-(4-methanesulfonyl-cyclohexyl)-1,6-dihydro-1,2,3,5,6-tetraaza-as-indacen-2-yl]-ethanol]
Ki (JAK1): 10.5 nM
Ki (TYK2): 52 nM
Ki (JAK3): 756 nM
Ki (JAK2): 113 nM

O=C1CN(Cc2nc3cnc4[nH]ccc4c3n2C2CCOCC2)CCN1 [Example 473, 4-[1-(Tetrahydro-pyran-4-yl)-1,6-dihydro-1,3,5,6-tetraaza-as-indacen-2-ylmethyl]-piperazin-2-one]
Ki (JAK1): 447 nM
Ki (TYK2): 1700 nM
Ki (JAK3): 2010 nM
Ki (JAK2): 1700 nM

CC(C1CCCO1)n1cnc2cnc3[nH]ccc3c21 (single isomer, unassigned) [Example 417, 1-[1-(Tetrahydro-furan-2-yl)-ethyl]-1,6-dihydro-1,3,5,6-tetraaza-as-indacene]
Ki (JAK1): 89.3 nM
Ki (TYK2): 341 nM
Ki (JAK3): 43.1 nM
Ki (JAK2): 74.1 nM

CC(=O)N(C)CCc1nc2cnc3[nH]ccc3c2n1C1CCN(CCC#N)CC1 [Example 387, N-(2-{1-[1-(2-Cyano-ethyl)-piperidin-4-yl]-1,6-dihydro-1,3,5,6-tetraaza-as-indacen-2-yl}-ethyl)-N-methyl-acetamide]
Ki (JAK1): 15.4 nM
Ki (TYK2): 350 nM
Ki (JAK3): 70.3 nM
Ki (JAK2): 54.1 nM

CCN1CCC(n2c(CCNC(C)=O)nc3cnc4[nH]ccc4c32)C(F)(F)C1 (stereo not drawn) [Example 807, N-{2-[1-(1-Ethyl-3,3-difluoro-piperidin-4-yl)-1,6-dihydro-1,3,5,6-tetraaza-as-indacen-2-yl]-ethyl}-acetamide]
Ki (JAK1): 3.78 nM
Ki (TYK2): 257 nM
Ki (JAK3): 15.9 nM
Ki (JAK2): 34.7 nM

C[C@@H](O)c1nc2cnc3[nH]ccc3c2n1C1CCN(Cc2cnn(C)c2)CC1 [Example 818, (R)-1-{1-[1-(1-Methyl-1H-pyrazol-4-ylmethyl)-piperidin-4-yl]-1,6-dihydro-1,3,5,6-tetraaza-as-indacen-2-yl}-ethanol]
Ki (JAK1): 9.45 nM
Ki (TYK2): 1380 nM
Ki (JAK3): 117 nM
Ki (JAK2): 383 nM

N#CCCC1CCC(n2c(C(O)CO)nc3cnc4[nH]ccc4c32)CC1 (stereo not drawn) [Example 1006, 3-{4-[2-(1,2-Dihydroxy-ethyl)-6H-1,3,5,6-tetraaza-as-indacen-1-yl]-cyclohexyl}-propionitrile]
Ki (JAK1): 0.8 nM
Ki (TYK2): 3.52 nM
Ki (JAK3): 11.3 nM
Ki (JAK2): 4.49 nM

C[C@@H](O)c1nc2cnc3[nH]ccc3c2n1[C@H]1CC[C@H](OC(=O)N(C)C)CC1 [Example 609, Trans dimethyl-carbamic acid 4-[2-((R)-1-hydroxy-ethyl)-6H-1,2,3,5,6-tetraaza-as-indacen-1-yl]-cyclohexyl ester]
Ki (JAK1): 96.7 nM
Ki (TYK2): 910 nM
Ki (JAK3): 701 nM
Ki (JAK2): 641 nM

Cc1nc2cnc3[nH]ccc3c2n1[C@H]1CC[C@@H](NC(=O)CC(F)(F)F)C1 [Example 731, 3,3,3-Trifluoro-N-[(1R,3S)-3-(2-methyl-6H-1,3,5,6-tetraaza-as-indacen-1-yl)-cyclopentyl]-propionamide]
Ki (JAK1): 0.58 nM
Ki (TYK2): 12.4 nM
Ki (JAK3): 9.13 nM
Ki (JAK2): 5.54 nM

CC(=O)N1CCC(c2nc3cnc4[nH]ccc4c3n2C2CCN(CCC#N)CC2)C1 (racemic) [Example 390, 3-{4-[2-(1-Acetyl-pyrrolidin-3-yl)-6H-1,3,5,6-tetraaza-as-indacen-1-yl]-piperidin-1-yl}-propionitrile]
Ki (JAK1): 21.5 nM
Ki (TYK2): 446 nM
Ki (JAK3): 47.9 nM
Ki (JAK2): 75.6 nM

O=C(c1ccccc1)N1CCC[C@@H](n2cnc3cnc4[nH]ccc4c32)C1 [Example 6, Phenyl-[(R)-3-(6H-1,2,3,5,6-tetraaza-as-indacen-1-yl)-piperidin-1-yl]-methanone]
Ki (JAK1): 11.9 nM
Ki (TYK2): 134 nM
Ki (JAK3): 373 nM
Ki (JAK2): 21.4 nM

Cc1nc2cnc3[nH]ccc3c2n1[C@H]1CC[C@H](N2CCC(O)C2)CC1 (mixture of isomers) [Example 597, Racemic trans 1-[4-(2-Methyl-6H-1,2,3,5,6-tetraaza-as-indacen-1-yl)-cyclohexyl]-pyrrolidin-3-ol]
Ki (JAK1): 30.8 nM
Ki (TYK2): 497 nM
Ki (JAK3): 823 nM
Ki (JAK2): 126 nM

c1ccc(CN2CCC[C@@H](n3nnc4cnc5[nH]ccc5c43)C2)cc1 [Example 18, 1-((R)-1-Benzyl-piperidin-3-yl)-1,6-dihydro-1,2,3,5,6-pentaaza-as-indacene]
Ki (JAK1): 24.6 nM
Ki (TYK2): 273 nM
Ki (JAK3): 323 nM
Ki (JAK2): 40.1 nM

CCOC(=O)NCCc1nc2cnc3[nH]ccc3c2n1C1CCN(CC)CC1(F)F (stereo not drawn) [Example 678, {2-[1-(1-Ethyl-3,3-difluoro-piperidin-4-yl)-1,6-dihydro-1,2,3,5,6-tetraaza-as-indacen-2-yl]-ethyl}-carbamic acid ethyl ester]
Ki (JAK1): 3.95 nM
Ki (TYK2): 276 nM
Ki (JAK3): 23.6 nM
Ki (JAK2): 31.8 nM

CC(C)C(=O)NCCc1nc2cnc3[nH]ccc3c2n1C1CCN(CCC#N)CC1 [Example 378, N-(2-{1-[1-(2-Cyano-ethyl)-piperidin-4-yl]-1,6-dihydro-1,3,5,6-tetraaza-as-indacen-2-yl}-ethyl)-isobutyramide]
Ki (JAK1): 5.03 nM
Ki (TYK2): 226 nM
Ki (JAK3): 61.3 nM
Ki (JAK2): 48.4 nM

C[C@@H](O)c1nc2cnc3[nH]ccc3c2n1[C@@H]1CCCO1 [Example 659, (R)-1-[(S)-1-(Tetrahydro-furan-2-yl)-1,6-dihydro-1,2,3,5,6-tetraaza-as-indacen-2-yl]-ethanol]
Ki (JAK1): 30.8 nM
Ki (TYK2): 308 nM
Ki (JAK3): 172 nM
Ki (JAK2): 395 nM

CS(=O)(=O)Cc1nc2cnc3[nH]ccc3c2n1C1CCN(CCC#N)CC1 [Example 491, 3-[4-(2-Methanesulfonylmethyl-6H-1,3,5,6-tetraaza-as-indacen-1-yl)-piperidin-1-yl]-propionitrile]
Ki (JAK1): 9.7 nM
Ki (TYK2): 95.8 nM
Ki (JAK3): 23.6 nM
Ki (JAK2): 34 nM

CC(=O)NC1CCCC(n2cnc3cnc4[nH]ccc4c32)C1 (single isomer, unassigned) [Example 478, N-[3-(6H-1,3,5,6-Tetraaza-as-indacen-1-yl)-cyclohexyl]-acetamide]
Ki (JAK1): 83.3 nM
Ki (TYK2): 425 nM
Ki (JAK3): 527 nM
Ki (JAK2): 125 nM

N#CCCN1CCC(n2c(C#N)nc3cnc4[nH]ccc4c32)CC1 [Example 293, 1-[1-(2-Cyano-ethyl)-piperidin-4-yl]-1,6-dihydro-1,3,5,6-tetraaza-as-indacene-2-carbonitrile]
Ki (JAK1): 1.21 nM
Ki (TYK2): 11.9 nM
Ki (JAK3): 14 nM
Ki (JAK2): 1.31 nM

N#Cc1nc2cnc3[nH]ccc3c2n1C1CCN(Cc2ccccc2)CC1 [Example 163, 1-(1-Benzyl-piperidin-4-yl)-1,6-dihydro-1,2,3,5,6-tetraaza-as-indacene-2-carbonitrile]
Ki (JAK1): 11.2 nM
Ki (TYK2): 607 nM
Ki (JAK3): 28.1 nM
Ki (JAK2): 10 nM
